Patent US12365687B2 (Hoffmann-La Roche Inc., priority 2021, dated 2025)

Legend:
[1] = molecular target: α2β2γ1 GABAA receptor subtype (Homo sapiens (Human), UniProt P47869+Q8N1C3); assay: Two-electrode voltage clamp electrophysiology in Xenopus oocytes expressing GABAA receptors (modulation of GABA EC20 current); format: cell-based; details: for Efficacy (GABA)%: % modulation of GABA EC20 = 100*(Fold increase-1), α2β2γ1 oocytes, compound at approx. 30-fold Ki; for Fold increase h-GABA-A α2β2γ1 oocyte @ 30-fold Ki: Xenopus oocytes expressing α2β2γ1, compound at approx. 30-fold its Ki α2β2γ1, GABA EC20 current
Outline: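 Each concentration was tested on ≥3 oocytes held at −80 mV at room temperature, recorded 3-5 days post-injection. A control and a test response to EC20 GABA (1.5 min each) were superimposed and their point-by-point ratio taken. Peak ratio reported as % modulation of GABA EC20 = 100×(fold increase−1).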

[2] = molecular target: human GABAA α2β2γ1 receptor (Homo sapiens (Human), UniProt P47869+Q8N1C3); assay: Radioligand binding assay for γ1-containing GABAA subtypes, [3H]RO7239181 competition (α2β2γ1)
[3] = molecular target: human GABAA α1β2γ1 receptor (Homo sapiens (Human), UniProt P14867+Q8N1C3); assay: Radioligand binding assay for γ1-containing GABAA subtypes, [3H]RO7239181 competition (α1β2γ1)
Procedure: The affinity of compounds at GABAA γ1 subunit-containing receptors was measured by competition for [^3H]RO7239181 (67.3 Ci/mmol; Roche) binding to membranes from HEK293F cells (ThermoFisher R79007) expressing human (transiently transfected) receptors of composition α5β2γ1, α2β2γ1, α1β2γ1.
Harvested pellets from HEK293F cells expressing the different GABAA receptor subtypes were resuspended in Mannitol Buffer pH 7.2-7.4 (Mannitol 0.29 M, Triethylamine 10 mM, Acetic acid 10 mM, EDTA 1 mM plus protease inhibitors (20 tablets Complete, Roche Diagnostics Cat. No. 05 056 489 001 per liter)), washed two times and then resuspended at 1:10 to 1:15 dilution in the same buffer. Cell disruption was performed by stirring the suspension in a Parr vessel #4637 at 435 psi for 15 minutes, and then the suspensions were centrifuged at 1000×g for 15 minutes at 4° C. (Beckman Avanti J-HC; rotor JS-4.2). The supernatant (S1) was transferred in a 2 l Schott flask and the pellet (P1) was resuspended with Mannitol Buffer up to 175 ml. The resuspended pellet was transferred into a 250 ml Corning centrifugal beaker and centrifuged at 1500×g for 10 minutes at 4° C. (Beckman Avanti J-HC; rotor JS-4.2). The supernatant (S1) was then transferred in the 2 l Schott flask and the pellet was discarded. The supernatants (S1) were centrifuged in 500 ml Beckman polypropylene centrifugal beaker at 15′000×g for 30 minutes at 4° C. (Beckman Avanti J-20 XP; rotor JLA-10.500). The pellet (P2) was resuspended with Mannitol Buffer 1:1 and frozen at −80° C. The supernatant (S2) was centrifuged in 100 ml Beckman polypropylene centrifugal tubes at 48000×g for 50 minutes at 4° C. (Beckman Avanti J-20 XP; rotor JA-18). The supernatant (S3) was discarded and the pellet (P3) was resuspended with 1:1 Mannitol Buffer. The P2 and P3 protein concentration was determined with the BIORAD Standard assay method with bovine serum albumin as standard and measured on the NANO-Drop 1000. The membrane suspension was aliquots (500 μl per tube) and stored at −80° C. until required.
Membrane homogenates were resuspended and polytronised (Polytron PT1200E Kinematica AG) in Potassium Phosphate 10 mM, KCl 100 mM binding buffer at pH 7.4 to a final assay concentration determined with a previous experiment.
Assays were incubated to equilibrium for 1 hour at 4° C. and then, membranes were filtered onto unifilter (96-well white microplate with bonded GF/C filters preincubated 20-50 minutes in 0.3% Polyethylenimine) with a Filtermate 196 harvester (Packard BioScience) and washed 4 times with cold Potassium Phosphate 10 mM pH 7.4, KCl 100 mM binding buffer. After anhydrousing, filter-retained radioactivity was detected by liquid scintillation counting. Ki values were calculated using Excel-Fit (Microsoft) and are the means of two determinations.

[4] = molecular target: human GABAA α5β2γ1 receptor (Homo sapiens (Human), UniProt P31644+Q8N1C3); assay: Radioligand binding assay for γ1-containing GABAA subtypes, [3H]RO7239181 competition (α5β2γ1)
[5] = molecular target: human GABAA α1β3γ2 receptor (Homo sapiens (Human), UniProt P14867+P18507); assay: Radioligand binding assay for γ2-containing GABAA subtypes, [3H]Flumazenil competition (α1β3γ2); details: for γ2/γ1 Selectivity Ratio: Ki α1β3γ2 (nM)/Ki α2β2γ1 (nM); for LogSel: Log[Ki α1β3γ2 (nM)/Ki α2β2γ1 (nM)]
[6] = Ki h-GABAA α2β2γ1, [3H]RO7239181 competition binding, human GABAA α2β2γ1
[7] = Ki h-GABAA α2β2γ1, displacement of [3H]RO7239181, membranes of HEK293F cells expressing human receptors, means of two determinations

SMILES | Efficacy (GABA)% [1] [%] | Fold increase h-GABA-A α2β2γ1 oocyte @ 30-fold Ki [1] | Ki [2, 6] [nM] | Ki [2, 7] [nM] | Ki [3] [nM] | Ki [4] [nM] | Ki [5] [nM] | γ2/γ1 Selectivity Ratio [5] | LogSel [5]
COC1CN(C(=O)c2cn3c(n2)CN=C(c2ccccc2F)c2c-3ccc(Cl)c2Cl)C1 [Example 1, (7,8-dichloro-6-(2-fluorophenyl)-4H-benzo[f]imidazo[1,2-a][1,4]diazepin-2-yl)(3-methoxyazetidin-1-yl)methanone] | 77 | 1.77 | 25 | 25 | 35.1 | 3.19 | 638 | 25.5 | 1.41
C[C@@H]1N=C(c2c(F)cccc2F)c2c(ccc(Cl)c2Cl)-n2nc(C(=O)N3CCC3)nc21 [Example 14, azetidin-1-yl-[(4S)-7,8-dichloro-6-(2,6-difluorophenyl)-4-methyl-4H-[1,2,4]triazolo[1,5-a][1,4]benzodiazepin-2-yl]methanone] | 57 | 1.57 | 7.1 | 7.1 | 8.5 | 1.11 | 773 | 108.2 | 2.03
COC1CN(C(=O)c2nc3n(n2)-c2ccc(Cl)c(Cl)c2C(c2c(F)cccc2F)=N[C@H]3C)C1 [Example 16, [(4S)-7,8-dichloro-6-(2,6-difluorophenyl)-4-methyl-4H-[1,2,4]triazolo[1,5-a][1,4]benzodiazepin-2-yl]-(3-methoxyazetidin-1-yl)methanone] | 52 | 1.52 | 5.2 | 5.2 | 9.2 | 1.2 | 571 | 109.6 | 2.04
Cc1nc2n(n1)-c1ccc(Cl)c(Cl)c1C(c1c(F)cccc1F)=N[C@H]2C [Example 21, (4S)-7,8-dichloro-6-(2,6-difluorophenyl)-2,4-dimethyl-4H-[1,2,4]triazolo[1,5-a][1,4]benzodiazepine] | 67 | 1.67 | 4.4 | 4.43 | 8.3 | 0.69 | 244 | 55.0 | 1.74
COC1CN(C(=O)c2nc3n(n2)-c2ccc(C(F)(F)F)c(Cl)c2C(c2c(F)cccc2F)=N[C@H]3C)C1 [Example 23] | 63 |  | 11.8 | 11.8 | 29 | 1.63 | 1140 | 96.8 | 
C[C@@H]1N=C(c2c(F)cccc2F)c2c(ccc(C(F)(F)F)c2Cl)-n2nc(C(=O)N3CCC3)nc21 [Example 26, azetidin-1-yl-[(4S)-7-chloro-6-(2,6-difluorophenyl)-4-methyl-8-(trifluoromethyl)-4H-[1,2,4]triazolo[1,5-a][1,4]benzodiazepin-2-yl]methanone] | 75 | 1.75 | 8.6 | 8.6 | 38.1 | 2.48 | 1840 | 213.1 | 2.33
C[C@@H]1N=C(c2c(F)cccc2F)c2c(ccc(Cl)c2Cl)-n2nc(C(=O)N3CCS(=O)(=O)CC3)nc21 [Example 36, [(4S)-7,8-dichloro-6-(2,6-difluorophenyl)-4-methyl-4H-[1,2,4]triazolo[1,5-a][1,4]benzodiazepin-2-yl]-(1,1-dioxo-1,4-thiazinan-4-yl)methanone] | 71 | 1.71 | 3.5 | 3.46 | 8.25 | 0.95 | 778 | 224.7 | 2.35
C[C@@H]1N=C(c2c(F)cccc2F)c2c(ccc(Cl)c2Cl)-n2nc(C(=O)NCCO)nc21 [Example 54, (4S)-7,8-dichloro-6-(2,6-difluorophenyl)-N-(2-hydroxyethyl)-4-methyl-4H-[1,2,4]triazolo[1,5-a][1,4]benzodiazepine-2-carboxamide] | 80 | 1.80 | 4.4 | 4.38 | 15.2 | 0.97 | 581 | 132.7 | 2.12
C[C@@H]1N=C(c2c(F)cccc2F)c2c(ccc(C(F)(F)F)c2Cl)-n2nc(C(=O)N3CC(O)C3)nc21 [Example 58, (3-hydroxyazetidin-1-yl)-[(4S)-7-chloro-6-(2,6-difluorophenyl)-4-methyl-8-(trifluoromethyl)-4H-[1,2,4]triazolo[1,5-a][1,4]benzodiazepin-2-yl]methanone] | 112 | 2.12 | 7 | 7 | 23.9 | 2.3 | 1090 | 156.8 | 2.20
C[C@@H]1N=C(c2ncccc2F)c2c(ccc(C(F)(F)F)c2Cl)-n2nc(C(=O)N3CCC3)nc21 [Example 85, azetidin-1-yl-[(4S)-7-chloro-6-(3-fluoro-2-pyridyl)-4-methyl-8-(trifluoromethyl)-4H-[1,2,4]triazolo[1,5-a][1,4]benzodiazepin-2-yl]methanone] | 140 | 2.40 | 60.9 | 60.9 | 224 | 8.51 | 8860 | 145.5 | 2.16
COC1CN(C(=O)c2nc3n(n2)-c2ccc(C(F)(F)F)c(Cl)c2C(c2ncccc2F)=N[C@H]3C)C1 [Example 103, [(4S)-7-chloro-6-(3-fluoro-2-pyridyl)-4-methyl-8-(trifluoromethyl)-4H-[1,2,4]triazolo[1,5-a][1,4]benzodiazepin-2-yl]-(3-methoxyazetidin-1-yl)methanone] | 113 | 2.13 | 25.4 | 25.3 | 178 | 9.87 | > 30000 | 1183.4 | 3.07
C[C@@H]1N=C(c2c(F)cccc2F)c2c(ccc(C(F)(F)F)c2Cl)-n2nc(C(=O)NCCF)nc21 [Example 106, (4S)-7-chloro-6-(2,6-difluorophenyl)-N-(2-fluoroethyl)-4-methyl-8-(trifluoromethyl)-4H-[1,2,4]triazolo[1,5-a][1,4]benzodiazepine-2-carboxamide] | 90 | 1.90 | 22.6 | 22.6 | 104 | 2.94 | 4190 | 185.1 | 2.27
